In brackets after ≈: the same amount, converted by molar mass.
How the values were obtained:
CHOLECYSTOKININ 1 REC. = CHOLECYSTOKININ 1 REC. (Homo sapiens, UniProt P32238); experiment: biochemical; settings: read-out: CHOLECYSTOKININ 1 REC. percent activity or inhibition compared to the assay reference
NORE[…]. = NORE[…]. (Homo sapiens, UniProt P23975); experiment: biochemical; settings: read-out: NORE[…]. percent activity or inhibition compared to the assay reference
β2-ADRENOCEPTOR = β2-ADRENOCEPTOR (Homo sapiens, UniProt P07550); experiment: biochemical; settings: read-out: β2-ADRENOCEPTOR percent activity or inhibition compared to the assay reference
α2A-ADRENOCEPTOR = α2A-ADRENOCEPTOR (Homo sapiens, UniProt P08913); experiment: biochemical; settings: read-out: α2A-ADRENOCEPTOR percent activity or inhibition compared to the assay reference
GLUC[…]. = GLUC[…]. (Homo sapiens, UniProt P04150); experiment: biochemical; settings: read-out: GLUC[…]. percent activity or inhibition compared to the assay reference
[…]. M1 = […]. M1 (Homo sapiens, UniProt P11229); experiment: biochemical; settings: read-out: […]. M1 percent activity or inhibition compared to the assay reference
CYP2C9 = CYP2C9 (Homo sapiens, UniProt P11712); experiment: Cytochrome P450 inhibition assay, CYP2C9; settings: liver microsomes
ABCB1 (MDR1, human P-gp) = ABCB1 (MDR1, human P-gp) (Homo sapiens, UniProt P08183); experiment: P-glycoprotein (P-gp) assay in LLC-PK1 cells transfected with ABCB1; settings: for Papp A→B: human, LLC-PK1
PHOSPHODIESTERASE 3B = PHOSPHODIESTERASE 3B (Homo sapiens, UniProt Q13370); experiment: biochemical; settings: read-out: PHOSPHODIESTERASE 3B percent activity or inhibition compared to the assay reference
MONOAMINE OXIDASE-A = MONOAMINE OXIDASE-A (Homo sapiens, UniProt P21397); experiment: biochemical; settings: read-out: MONOAMINE OXIDASE-A percent activity or inhibition compared to the assay reference
DOPAMINE D2 REC. (short) = DOPAMINE D2 REC. (short) (Homo sapiens, UniProt P14416); experiment: biochemical; settings: read-out: DOPAMINE D2 REC. (short) percent activity or inhibition compared to the assay reference
[1] = Microsomal clearance, mouse microsomes
HISTAMINE H2 REC. = HISTAMINE H2 REC. (Homo sapiens, UniProt P25021); experiment: biochemical; settings: read-out: HISTAMINE H2 REC. percent activity or inhibition compared to the assay reference
[…]. M2 = […]. M2 (Homo sapiens, UniProt P08172); experiment: biochemical; settings: read-out: […]. M2 percent activity or inhibition compared to the assay reference
5HT3 = 5HT3 (Homo sapiens, UniProt P46098); experiment: biochemical; settings: read-out: 5HT3 percent activity or inhibition compared to the assay reference
PROSTAGLANDIN F REC. = PROSTAGLANDIN F REC. (Homo sapiens, UniProt P43088); experiment: biochemical; settings: read-out: PROSTAGLANDIN F REC. percent activity or inhibition compared to the assay reference
Solubility in 0.05M PO4- = assay type: physicochemical; settings: for solubility: 0.05 M phosphate buffer, aqueous buffer
HISTAMINE H1 REC. = HISTAMINE H1 REC. (Homo sapiens, UniProt P35367); experiment: biochemical; settings: read-out: HISTAMINE H1 REC. percent activity or inhibition compared to the assay reference
SEROTONIN TRANSPORTER = SEROTONIN TRANSPORTER (Homo sapiens, UniProt P31645); experiment: biochemical; settings: read-out: SEROTONIN TRANSPORTER percent activity or inhibition compared to the assay reference
β1-ADRENOCEPTOR = β1-ADRENOCEPTOR (Homo sapiens, UniProt P08588); experiment: biochemical; settings: read-out: β1-ADRENOCEPTOR percent activity or inhibition compared to the assay reference
ACETYLCHOLINESTERASE = ACETYLCHOLINESTERASE (Homo sapiens, UniProt P22303); experiment: biochemical; settings: read-out: ACETYLCHOLINESTERASE percent activity or inhibition compared to the assay reference
[2] = Parallel Artificial Membrane Permeability (PAMPA); settings: for Papp at 18 h, 150 µM: PAMPA, pH 6
[3] = Microsomal clearance, human microsomes
HISTAMINE H3 REC. = HISTAMINE H3 REC. (Homo sapiens, UniProt Q9Y5N1); experiment: biochemical; settings: read-out: HISTAMINE H3 REC. percent activity or inhibition compared to the assay reference
PPARγ = PPARγ (Homo sapiens, UniProt P37231); experiment: biochemical; settings: read-out: PPARγ percent activity or inhibition compared to the assay reference
GABA-A = settings: 10 uM; n=2
NEURONAL NICOTINIC REC. = settings: 10 uM; n=2
GABA-A (BENZ[…]) = settings: 10 uM; n=2
CA2+ CHANNEL (L-TYPE) = settings: 10 uM; n=2
PCP NMDA REC. = settings: 10 uM; n=2
GLYCINE REC. = settings: 10 uM; n=2

5HT3, sequence (P46098 24-478): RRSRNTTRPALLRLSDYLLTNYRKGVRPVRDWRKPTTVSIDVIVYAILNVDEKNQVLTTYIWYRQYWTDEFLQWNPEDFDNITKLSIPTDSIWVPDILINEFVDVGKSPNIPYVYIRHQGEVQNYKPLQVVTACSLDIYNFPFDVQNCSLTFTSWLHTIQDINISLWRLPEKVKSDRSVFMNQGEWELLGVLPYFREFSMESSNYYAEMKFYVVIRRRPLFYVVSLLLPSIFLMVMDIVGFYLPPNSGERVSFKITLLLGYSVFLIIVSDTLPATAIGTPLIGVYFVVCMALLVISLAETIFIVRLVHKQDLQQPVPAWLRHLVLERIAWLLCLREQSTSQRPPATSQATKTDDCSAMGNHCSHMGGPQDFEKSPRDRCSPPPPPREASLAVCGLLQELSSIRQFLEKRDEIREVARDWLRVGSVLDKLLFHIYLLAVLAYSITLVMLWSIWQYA
[…]. M1, sequence (P11229 whole entry): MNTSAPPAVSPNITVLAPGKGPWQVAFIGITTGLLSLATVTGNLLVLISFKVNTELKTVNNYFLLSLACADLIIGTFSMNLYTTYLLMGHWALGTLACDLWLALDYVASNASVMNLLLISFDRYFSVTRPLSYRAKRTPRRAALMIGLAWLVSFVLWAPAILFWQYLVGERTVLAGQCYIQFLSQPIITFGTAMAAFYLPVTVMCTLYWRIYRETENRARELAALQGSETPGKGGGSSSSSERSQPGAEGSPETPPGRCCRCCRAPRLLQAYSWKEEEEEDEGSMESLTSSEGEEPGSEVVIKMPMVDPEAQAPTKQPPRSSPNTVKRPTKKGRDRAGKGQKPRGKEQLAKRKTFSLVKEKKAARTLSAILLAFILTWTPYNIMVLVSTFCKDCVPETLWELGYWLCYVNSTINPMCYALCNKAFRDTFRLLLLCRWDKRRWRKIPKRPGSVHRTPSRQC
[…]. M2, sequence (P08172 whole entry): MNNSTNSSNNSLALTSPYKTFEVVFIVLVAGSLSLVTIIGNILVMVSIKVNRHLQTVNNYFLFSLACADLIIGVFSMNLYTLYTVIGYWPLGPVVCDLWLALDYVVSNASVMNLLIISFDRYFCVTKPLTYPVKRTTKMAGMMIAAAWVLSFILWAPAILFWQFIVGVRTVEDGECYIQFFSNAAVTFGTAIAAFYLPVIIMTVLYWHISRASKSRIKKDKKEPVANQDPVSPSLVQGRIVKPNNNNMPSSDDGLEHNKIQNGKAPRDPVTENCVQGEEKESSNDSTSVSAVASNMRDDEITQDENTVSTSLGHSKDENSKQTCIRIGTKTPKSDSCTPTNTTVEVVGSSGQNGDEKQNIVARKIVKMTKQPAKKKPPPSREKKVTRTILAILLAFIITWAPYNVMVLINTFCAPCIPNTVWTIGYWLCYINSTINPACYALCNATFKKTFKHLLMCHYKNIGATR
GLUC[…]., sequence (P04150 whole entry): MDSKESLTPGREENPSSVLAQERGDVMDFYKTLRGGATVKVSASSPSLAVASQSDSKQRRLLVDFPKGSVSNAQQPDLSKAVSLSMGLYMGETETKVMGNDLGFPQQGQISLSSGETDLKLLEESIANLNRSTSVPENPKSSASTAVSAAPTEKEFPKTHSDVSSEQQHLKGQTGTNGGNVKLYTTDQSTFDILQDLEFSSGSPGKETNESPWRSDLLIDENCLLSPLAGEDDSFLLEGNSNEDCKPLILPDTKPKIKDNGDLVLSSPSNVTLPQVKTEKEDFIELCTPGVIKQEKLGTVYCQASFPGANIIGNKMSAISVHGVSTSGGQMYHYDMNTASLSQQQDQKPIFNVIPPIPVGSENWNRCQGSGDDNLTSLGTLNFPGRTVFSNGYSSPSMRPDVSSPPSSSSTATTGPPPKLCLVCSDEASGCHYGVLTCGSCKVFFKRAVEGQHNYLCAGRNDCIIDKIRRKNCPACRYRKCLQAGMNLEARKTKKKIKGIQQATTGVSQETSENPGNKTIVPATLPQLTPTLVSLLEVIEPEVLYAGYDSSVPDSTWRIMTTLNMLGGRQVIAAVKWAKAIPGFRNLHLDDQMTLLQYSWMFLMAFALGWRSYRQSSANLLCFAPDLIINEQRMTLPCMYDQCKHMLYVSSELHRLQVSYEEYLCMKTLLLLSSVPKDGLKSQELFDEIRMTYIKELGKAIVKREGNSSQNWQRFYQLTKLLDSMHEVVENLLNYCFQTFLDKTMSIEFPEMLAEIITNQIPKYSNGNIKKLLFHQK
PPARγ, sequence (P37231 whole entry): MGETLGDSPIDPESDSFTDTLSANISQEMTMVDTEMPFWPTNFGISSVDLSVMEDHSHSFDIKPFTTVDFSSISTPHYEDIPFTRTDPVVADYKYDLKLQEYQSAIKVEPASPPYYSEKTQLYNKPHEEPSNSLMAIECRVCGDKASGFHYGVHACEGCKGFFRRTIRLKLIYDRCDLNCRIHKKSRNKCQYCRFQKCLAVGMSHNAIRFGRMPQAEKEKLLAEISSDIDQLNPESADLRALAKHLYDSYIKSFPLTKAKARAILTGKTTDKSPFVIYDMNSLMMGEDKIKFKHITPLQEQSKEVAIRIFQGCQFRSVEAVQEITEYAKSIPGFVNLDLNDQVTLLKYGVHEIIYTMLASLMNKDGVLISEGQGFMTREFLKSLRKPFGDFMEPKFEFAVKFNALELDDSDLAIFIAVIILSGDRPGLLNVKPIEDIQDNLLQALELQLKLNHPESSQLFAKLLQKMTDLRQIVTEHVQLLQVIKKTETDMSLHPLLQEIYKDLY
UniProt P43088, sequence (P43088 whole entry): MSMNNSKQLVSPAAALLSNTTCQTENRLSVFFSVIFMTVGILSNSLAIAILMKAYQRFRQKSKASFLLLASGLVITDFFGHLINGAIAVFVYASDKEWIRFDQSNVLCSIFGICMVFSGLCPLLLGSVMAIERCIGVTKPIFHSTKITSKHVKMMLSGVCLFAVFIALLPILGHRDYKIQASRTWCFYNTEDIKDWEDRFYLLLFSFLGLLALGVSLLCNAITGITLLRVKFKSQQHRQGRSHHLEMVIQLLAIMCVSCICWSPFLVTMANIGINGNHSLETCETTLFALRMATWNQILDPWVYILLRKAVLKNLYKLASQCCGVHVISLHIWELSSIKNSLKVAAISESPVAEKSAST
UniProt P08588, sequence (P08588 whole entry): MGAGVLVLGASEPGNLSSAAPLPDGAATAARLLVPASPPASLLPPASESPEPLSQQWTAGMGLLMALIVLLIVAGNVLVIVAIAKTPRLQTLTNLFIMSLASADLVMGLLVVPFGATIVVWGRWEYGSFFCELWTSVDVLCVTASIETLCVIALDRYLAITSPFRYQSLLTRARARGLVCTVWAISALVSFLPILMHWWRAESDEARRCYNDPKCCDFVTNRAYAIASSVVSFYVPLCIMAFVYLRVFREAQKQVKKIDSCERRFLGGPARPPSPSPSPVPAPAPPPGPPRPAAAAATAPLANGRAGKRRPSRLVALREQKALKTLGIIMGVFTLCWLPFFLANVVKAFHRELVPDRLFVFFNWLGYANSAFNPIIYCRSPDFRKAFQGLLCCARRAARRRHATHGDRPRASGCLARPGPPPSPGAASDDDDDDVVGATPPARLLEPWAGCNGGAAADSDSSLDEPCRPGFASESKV
SEROTONIN TRANSPORTER, sequence (P31645 whole entry): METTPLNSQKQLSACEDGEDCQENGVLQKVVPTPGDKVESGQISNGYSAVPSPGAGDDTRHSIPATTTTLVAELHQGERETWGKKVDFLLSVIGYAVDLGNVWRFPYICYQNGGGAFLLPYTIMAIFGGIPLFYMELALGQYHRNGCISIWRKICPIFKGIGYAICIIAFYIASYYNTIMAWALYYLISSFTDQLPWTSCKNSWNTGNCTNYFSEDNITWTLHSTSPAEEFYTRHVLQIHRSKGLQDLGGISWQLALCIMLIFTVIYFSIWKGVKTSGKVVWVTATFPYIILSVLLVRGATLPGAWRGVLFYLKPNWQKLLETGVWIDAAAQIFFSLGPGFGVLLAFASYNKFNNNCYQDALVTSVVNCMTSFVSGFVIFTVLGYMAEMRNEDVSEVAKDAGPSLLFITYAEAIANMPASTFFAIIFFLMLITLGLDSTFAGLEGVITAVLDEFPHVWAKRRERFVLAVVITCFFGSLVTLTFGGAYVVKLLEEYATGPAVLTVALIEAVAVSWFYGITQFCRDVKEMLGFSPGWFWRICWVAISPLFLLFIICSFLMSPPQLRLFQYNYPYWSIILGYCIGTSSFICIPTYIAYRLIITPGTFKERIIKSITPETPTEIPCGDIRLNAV
HISTAMINE H1 REC., sequence (P35367 whole entry): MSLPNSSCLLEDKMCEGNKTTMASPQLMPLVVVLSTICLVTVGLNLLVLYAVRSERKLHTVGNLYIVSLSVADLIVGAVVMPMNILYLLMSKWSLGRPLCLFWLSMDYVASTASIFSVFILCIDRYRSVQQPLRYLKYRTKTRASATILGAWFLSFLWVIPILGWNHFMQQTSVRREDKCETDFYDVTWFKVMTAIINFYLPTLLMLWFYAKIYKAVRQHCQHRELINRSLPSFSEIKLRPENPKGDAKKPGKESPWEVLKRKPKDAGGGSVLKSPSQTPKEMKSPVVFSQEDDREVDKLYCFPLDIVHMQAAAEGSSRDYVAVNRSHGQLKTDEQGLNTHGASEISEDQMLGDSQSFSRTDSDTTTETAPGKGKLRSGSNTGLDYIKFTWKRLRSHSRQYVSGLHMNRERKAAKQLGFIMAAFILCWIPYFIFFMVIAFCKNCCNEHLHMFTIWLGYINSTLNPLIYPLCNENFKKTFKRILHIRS
HISTAMINE H2 REC., sequence (P25021 whole entry): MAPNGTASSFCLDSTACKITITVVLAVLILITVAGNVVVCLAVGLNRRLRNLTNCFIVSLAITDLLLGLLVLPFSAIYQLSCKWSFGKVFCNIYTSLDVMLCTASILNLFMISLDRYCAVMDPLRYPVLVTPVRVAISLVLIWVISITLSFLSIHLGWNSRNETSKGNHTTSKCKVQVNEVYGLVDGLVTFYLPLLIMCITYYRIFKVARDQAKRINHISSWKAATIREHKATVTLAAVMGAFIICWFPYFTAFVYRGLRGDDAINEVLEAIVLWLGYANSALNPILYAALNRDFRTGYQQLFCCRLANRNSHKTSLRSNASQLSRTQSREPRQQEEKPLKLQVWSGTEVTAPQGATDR

| SMILES | inhibition at 10 µM (CHOLECYSTOKININ 1 REC.) [%] | inhibition at 10 µM (NORE[…].) [%] | inhibition at 10 µM (β2-ADRENOCEPTOR) [%] | inhibition at 10 µM (α2A-ADRENOCEPTOR) [%] | inhibition at 10 µM (GLUC[…].) [%] | inhibition at 10 µM ([…]. M1) [%] | CYP2C9 Inhibition (CYP2C9) [%] | Papp A→B (ABCB1 (MDR1, human P-gp)) [×10⁻⁶ cm/s] | inhibition at 10 µM (PHOSPHODIESTERASE 3B) [%] | inhibition at 10 µM (MONOAMINE OXIDASE-A) [%] | inhibition at 10 µM (DOPAMINE D2 REC. (short)) [%] | microsomal CLint at 1 µM [1] [µL/min/mg] | inhibition at 10 µM (HISTAMINE H2 REC.) [%] | inhibition at 10 µM ([…]. M2) [%] | inhibition at 10 µM (5HT3) [%] | inhibition at 10 µM (PROSTAGLANDIN F REC.) [%] | solubility (Solubility in 0.05M PO4-) [µg/mL] | inhibition at 10 µM (HISTAMINE H1 REC.) [%] | inhibition at 10 µM (SEROTONIN TRANSPORTER) [%] | inhibition at 10 µM (β1-ADRENOCEPTOR) [%] | further results |
| --- | --- | --- | --- | --- | --- | --- | --- | --- | --- | --- | --- | --- | --- | --- | --- | --- | --- | --- | --- | --- | --- |
| O=C(c1ccc2nc(-c3cccnc3)oc2c1)N1CCN(c2nc3ccccc3c(=O)[nH]2)CC1 [Compound 17] | -12 | 15 | 1 | 7 | -13 | 9 | 2 | 11.7 | 2 | 7 | -10 | 10 | 1 | 27 | 0 | -2 | 4.2 (≈ 9.28 µM) | 13 | -5 | 4 | inhibition at 10 µM (ACETYLCHOLINESTERASE): 3%; Papp at 18 h, 150 µM [2]: 4 ×10⁻⁶ cm/s; microsomal CLint at 1 µM [3]: 10 µL/min/mg; inhibition at 10 µM (HISTAMINE H3 REC.): 14%; inhibition at 10 µM (PPARγ): -4% |
| O=C(c1ccc2nc(-c3cnccc3C3CCCC3)oc2c1)N1CCN(c2nc3nc(Cl)ccc3o2)CC1 [Compound 23] | 9 | 15 | 4 | 3 | -2 | 10 | 45 | 8.9 | -8 | 2 | -15 | 176 | -1 | 40 | -6 | -3 | < 0.05 | 11 | 10 | 2 | GABA-A percent activity or inhibition compared to the assay reference (GABA-A): 16%; NEURONAL NICOTINIC REC. percent activity or inhibition compared to the assay reference (NEURONAL NICOTINIC REC.): -3%; GABA-A (BENZ[…]) percent activity or inhibition compared to the assay reference (GABA-A (BENZ[…])): 10%; CA2+ CHANNEL (L-TYPE) percent activity or inhibition compared to the assay reference (CA2+ CHANNEL (L-TYPE)): 73%; inhibition at 10 µM (ACETYLCHOLINESTERASE): -1%; Papp at 18 h, 150 µM [2]: 4 ×10⁻⁶ cm/s; microsomal CLint at 1 µM [3]: 415 µL/min/mg; PCP NMDA REC. percent activity or inhibition compared to the assay reference (PCP NMDA REC.): 7%; inhibition at 10 µM (HISTAMINE H3 REC.): 4%; GLYCINE REC. percent activity or inhibition compared to the assay reference (GLYCINE REC.): 7%; inhibition at 10 µM (PPARγ): 7% |
| O=C(c1ccc2nc(-c3cnccc3C3(C4CCC4)CC3)oc2c1)N1CCN(c2nc3nc(Cl)ccc3o2)CC1 [Compound 27] | – | – | – | – | – | – | 73 | – | – | – | – | – | – | – | – | – | – | – | – | – | GABA-A percent activity or inhibition compared to the assay reference (GABA-A): 69%; P-gp (ABCB1 (MDR1, human P-gp); apparent permeability, apical-to-basolateral, LLC-PK1 cells with human P-gp): 7.1 ×10⁻⁶ cm/s; NEURONAL NICOTINIC REC. percent activity or inhibition compared to the assay reference (NEURONAL NICOTINIC REC.): -8%; GABA-A (BENZ[…]) percent activity or inhibition compared to the assay reference (GABA-A (BENZ[…])): 9%; CA2+ CHANNEL (L-TYPE) percent activity or inhibition compared to the assay reference (CA2+ CHANNEL (L-TYPE)): 90%; Solubility in 0.05M PO4- (Solubility in 0.05M PO4-): < 0.6 µg/mL; PAMPA permeability ([2]; donor buffer pH 6.0, 18-hour incubation): 0.9 10^-6 cm/s; PCP NMDA REC. percent activity or inhibition compared to the assay reference (PCP NMDA REC.): 8%; GLYCINE REC. percent activity or inhibition compared to the assay reference (GLYCINE REC.): 3% |
| O=C(c1ccc2nc(-c3cnccc3C3CCCC3)oc2c1)N1CC2(CC(n3cnc(C4CC4)n3)C2)C1 [Compound 29] | 8 | 22 | 7 | 18 | -6 | 8 | 70 | 13.2 | 6 | 0 | 4 | 536 | 11 | 33 | -2 | 21 | < 0.05 | 18 | -11 | 7 | GABA-A percent activity or inhibition compared to the assay reference (GABA-A): 61%; NEURONAL NICOTINIC REC. percent activity or inhibition compared to the assay reference (NEURONAL NICOTINIC REC.): 6%; GABA-A (BENZ[…]) percent activity or inhibition compared to the assay reference (GABA-A (BENZ[…])): -1%; CA2+ CHANNEL (L-TYPE) percent activity or inhibition compared to the assay reference (CA2+ CHANNEL (L-TYPE)): 32%; inhibition at 10 µM (ACETYLCHOLINESTERASE): 0%; Papp at 18 h, 150 µM [2]: 5.9 ×10⁻⁶ cm/s; cell permeability ([2]; in words, SI2.2, Fig. S1 (PAMPA vs LipE)): potent cell permeability; microsomal CLint at 1 µM [3]: 425 µL/min/mg; PCP NMDA REC. percent activity or inhibition compared to the assay reference (PCP NMDA REC.): -1%; inhibition at 10 µM (HISTAMINE H3 REC.): 12%; GLYCINE REC. percent activity or inhibition compared to the assay reference (GLYCINE REC.): -2%; inhibition at 10 µM (PPARγ): 16% |

Reference: article PMC12749626, “Expediting hit-to-lead progression in drug discovery through reaction prediction and multi-dimensional optimization” (Nature Communications, 2025)
